Assay results published in patent US3939143A, “1-N-isoserylkanamycins and the production thereof” (Zaidan Hojin Biseibutsu Kagaku Kenkyu Kai, priority 1973, dated 1976).
Converted amounts (≈) assume the structure as drawn.

Legend:
[1] = system: kanamycin-resistant strains; conditions: phosphotransferase-producing resistant strains; cited from earlier work
[2] = system: Escherichia coli JR66/W677; conditions: nucleotidyltransferase-producing resistant strain; cited from earlier work
phosphotransferase = conditions: phosphorylation of the 3'-hydroxyl group; cited from earlier work
[3] = system: Escherichia coli K-12 ML 1410 R81; assay: Minimum inhibitory concentration, serial dilution on nutrient agar; type: cell-based; conditions: 18 h, read-out: Minimum Inhibitory Concentration
[4] = system: Escherichia coli JR66/W677; assay: as above; type: cell-based; conditions: JR66/W677, 37°C, 18 hours, read-out: Minimum Inhibitory Concentration
[5] = system: Bacillus cereus ATCC 10702; assay: as above; type: cell-based; conditions: ATCC10702, 37°C, 18 hours, read-out: Minimum Inhibitory Concentration
[6] = system: Mycobacterium smegmatis ATCC 607; assay: as above; type: cell-based; conditions: Mycolicibacterium smegmatis, ATCC607; 37°C, 18 hours; read-out: Minimum Inhibitory Concentration
[7] = system: Staphylococcus aureus FDA 209P; assay: as above; type: cell-based; conditions: FDA209P, 37°C, 18 hours, read-out: Minimum Inhibitory Concentration
[8] = system: Pseudomonas aeruginosa 99; assay: as above; type: cell-based; conditions: Pseudomonas aeruginosa, 99; 37°C, 18 hours; read-out: Minimum Inhibitory Concentration
[9] = system: Staphylococcus aureus Smith; assay: as above; type: cell-based; conditions: 37°C, 18 hours, read-out: Minimum Inhibitory Concentration
Proteus vulgaris OX 19 = assay: as above; type: cell-based; conditions: OX19, 37°C, 18 hours, read-out: Minimum Inhibitory Concentration
Salmonella typhosa T-63 = assay: as above; type: cell-based; conditions: Salmonella enterica, 18 h, read-out: Minimum Inhibitory Concentration
[10] = system: Klebsiella pneumoniae 22 No. 3038; assay: as above; type: cell-based; conditions: 22NO.3038, 37°C, 18 hours, read-out: Minimum Inhibitory Concentration
Bacillus anthracis = assay: microbe, parasite or virus in culture; type: cell-based; conditions: 18 h, read-out: Minimum Inhibitory Concentration
[11] = system: Staphylococcus aureus Terajima; assay: Minimum inhibitory concentration, serial dilution on nutrient agar; type: cell-based; conditions: 37°C, 18 hours, read-out: Minimum Inhibitory Concentration
Escherichia coli NIHJ = assay: as above; type: cell-based; conditions: 37°C, 18 hours, read-out: Minimum Inhibitory Concentration
[12] = system: Klebsiella pneumoniae PCI 602; assay: as above; type: cell-based; conditions: PCI602, 37°C, 18 hours, read-out: Minimum Inhibitory Concentration
Sarcina lutea PCI 1001 = assay: as above; type: cell-based; conditions: Micrococcus luteus, PCI1001; 37°C, 18 hours; read-out: Minimum Inhibitory Concentration
[13] = system: Escherichia coli K-12 ML 1410; assay: as above; type: cell-based; conditions: K12ML1410, 18 h, read-out: Minimum Inhibitory Concentration
[14] = system: Salmonella enteritidis 1891; assay: as above; type: cell-based; conditions: Salmonella enterica, 18 h, read-out: Minimum Inhibitory Concentration
[15] = system: Shigella dysenteriae JS 11910; assay: as above; type: cell-based; conditions: JS11910, 18 h, read-out: Minimum Inhibitory Concentration
Escherichia coli K-12 = assay: as above; type: cell-based; conditions: K12, 37°C, 18 hours, read-out: Minimum Inhibitory Concentration
[16] = system: Bacillus subtilis NRRL B-558; assay: as above; type: cell-based; conditions: NRRLB558, 37°C, 18 hours, read-out: Minimum Inhibitory Concentration
[17] = system: Corynebacterium bovis 1810; assay: as above; type: cell-based; conditions: Corynebacterium bovis, 1810; 37°C, 18 hours; read-out: Minimum Inhibitory Concentration
[18] = system: Escherichia coli LA290 R56; assay: as above; type: cell-based; conditions: LA290R56, 18 h, read-out: Minimum Inhibitory Concentration
Escherichia coli W677 = assay: as above; type: cell-based; conditions: W677, 37°C, 18 hours, read-out: Minimum Inhibitory Concentration
[19] = system: Pseudomonas aeruginosa GN315; assay: as above; type: cell-based; conditions: GN315, 37°C, 18 hours, read-out: Minimum Inhibitory Concentration
[20] = system: Bacillus subtilis PCI 219; assay: as above; type: cell-based; conditions: PCI219, 37°C, 18 hours, read-out: Minimum Inhibitory Concentration
[21] = system: Pseudomonas aeruginosa No.12; assay: as above; type: cell-based; conditions: NO.12, 37°C, 18 hours, read-out: Minimum Inhibitory Concentration
nucleotidyltransferase = conditions: adenylylation of 2"-hydroxyl group with ATP; cited from earlier work
[22] = system: Pseudomonas aeruginosa A3; assay: Minimum inhibitory concentration, serial dilution on nutrient agar; type: cell-based; conditions: 37°C, 18 hours
Procedure: (§1) The minimum inhibitory concentrations (mcg/ml) of 1-N-DL-isoserylkanamycin,1-N-DL-isoserylkanamycin B and 1-N-DL-isoseryl-3',4'-dideoxykanamycin B against various microorganisms were determined according to the serial dilution method using nutrient agar medium at 37°C, the estimation being effected after 18 hours incubation. For comparison purposes, the minimum inhibitory concentrations of kanamycin, kanamycin B and 3',4'-dideoxykanamycin B were also determined in the same manner and under the same conditions as mentioned above.
(§2) The antibacterial spectra of 1-N-DL-isoseryl-kanamycin (abbreviated as 1-IS-KM), 1-N-DL-isoseryl-kanamycin B (abbreviated as 1-IS-KMB) and 1-N-DL-isoseryl-3',4'-dideoxykanamycin B (abbreviated as 1-IS-DKB) are shown in the following table together with those of kanamycin (abbreviatedas KM), kanamycin B (abbreviated as KMB) and 3',4'-dideoxykanamycin B (abbreviated as DKB).

[23] = system: Pseudomonas aeruginosa TI-13; assay: as above; type: cell-based; conditions: TI13, 37°C, 18 hours
Procedure: as §1, §2

Shigella sonnei JS 11746 = assay: as above; type: cell-based; conditions: JS11746, 37°C, 18 hours
Procedure: as §1, §2

[24] = system: Escherichia coli K-12 ML 1630; assay: as above; type: cell-based; conditions: K12ML1630, 37°C, 18 hours
Procedure: as §1, §2

[25] = system: Shigella flexneri 4b JS 11811; assay: as above; type: cell-based; conditions: 4BJS11811, 37°C, 18 hours
Procedure: as §1, §2

[26] = system: Escherichia coli K-12 ML 1629; assay: as above; type: cell-based; conditions: K12ML1629, 37°C, 18 hours, read-out: Minimum Inhibitory Concentration
[27] = system: Escherichia coli LA290 R55; assay: as above; type: cell-based; conditions: LA290R55, 18 h, read-out: Minimum Inhibitory Concentration
[28] = system: Escherichia coli LA290 R64; assay: as above; type: cell-based; conditions: LA290R64, 18 h, read-out: Minimum Inhibitory Concentration
[29] = system: gram-negative and gram-positive bacteria; assay: antibacterial activity, in words; type: cell-based; conditions: optically active L- or D-isoseryl form
Procedure: as §1, §2

mice = assay: acute toxicity upon intravenous injection in mice; type: in vivo; conditions: optically active L- or D-isoseryl form

## NC[C@H]1O[C@H](O[C@H]2[C@H](O)[C@@H](O[C@H]3O[C@H](CO)[C@@H](O)[C@H](N)[C@H]3O)[C@H](N)C[C@@H]2N)[C@H](O)C[C@@H]1O [3'-Deoxykanamycin]
[1]
  activity against kanamycin-resistant strains: actually effective
[2]
  activity against Escherichia coli JR66/W677: inactive
phosphotransferase
  susceptibility to / inactivation by phosphotransferase: not susceptible

## NC[C@@H]1CC[C@@H](N)[C@@H](O[C@H]2[C@H](O)[C@@H](O[C@H]3O[C@H](CO)[C@@H](O)[C@H](N)[C@H]3O)[C@H](N)C[C@@H]2N)O1 [DKB, 3',4'-dideoxykanamycin B, reference compound]
[3]
  MIC: 1.56 µg/mL (≈ 3.45 µM)
[4]
  MIC: 50 µg/mL (≈ 111 µM)
[5]
  MIC: 0.78 µg/mL (≈ 1.73 µM)
[6]
  MIC: 0.39 µg/mL (≈ 0.864 µM)
[7]
  MIC: < 0.2 µg/mL
[8]
  MIC: 3.13 µg/mL (≈ 6.93 µM)
[9]
  MIC: < 0.2 µg/mL
Proteus vulgaris OX 19
  MIC: < 0.2 µg/mL
Salmonella typhosa T-63
  MIC: < 0.2 µg/mL
[10]
  MIC: 100 µg/mL (≈ 221 µM)
[1]
  activity against kanamycin-resistant strains: actually effective
Bacillus anthracis
  MIC: < 0.2 µg/mL
[11]
  MIC: < 0.2 µg/mL
Escherichia coli NIHJ
  MIC: 0.39 µg/mL (≈ 0.864 µM)
[12]
  MIC: 0.39 µg/mL (≈ 0.864 µM)
Sarcina lutea PCI 1001
  MIC: 6.25 µg/mL (≈ 13.8 µM)
[13]
  MIC: 1.56 µg/mL (≈ 3.45 µM)
[14]
  MIC: 1.56 µg/mL (≈ 3.45 µM)
[15]
  MIC: 1.56 µg/mL (≈ 3.45 µM)
Escherichia coli K-12
  MIC: 0.78 µg/mL (≈ 1.73 µM)
[16]
  MIC: < 0.2 µg/mL
[2]
  activity against Escherichia coli JR66/W677: inactive
[17]
  MIC: 3.13 µg/mL (≈ 6.93 µM)
[18]
  MIC: 12.5 µg/mL (≈ 27.7 µM)
Escherichia coli W677
  MIC: 0.2 µg/mL (≈ 0.443 µM)
phosphotransferase
  susceptibility to / inactivation by phosphotransferase: not susceptible
[19]
  MIC: > 100 µg/mL
[20]
  MIC: < 0.2 µg/mL
[21]
  MIC: 0.78 µg/mL (≈ 1.73 µM)
nucleotidyltransferase
  inactivation by nucleotidyltransferase: inactivating
[22]
  MIC: 1.56 µg/mL (≈ 3.45 µM)
[23]
  MIC: 1.56 µg/mL (≈ 3.45 µM)
Shigella sonnei JS 11746
  MIC: 0.78 µg/mL (≈ 1.73 µM)
[24]
  MIC: 0.78 µg/mL (≈ 1.73 µM)
[25]
  MIC: 1.56 µg/mL (≈ 3.45 µM)
[26]
  MIC: 0.78 µg/mL (≈ 1.73 µM)
[27]
  MIC: 50 µg/mL (≈ 111 µM)
[28]
  MIC: 6.25 µg/mL (≈ 13.8 µM)

## NC[C@@H](O)C(=O)N[C@@H]1C[C@H](N)[C@@H](O[C@H]2O[C@H](CN)[C@@H](O)[C@H](O)[C@H]2O)[C@H](O)[C@H]1O[C@H]1O[C@H](CO)[C@@H](O)[C@H](N)[C@H]1O [1-N-D-isoserylkanamycin]
[29]
  antibacterial activity relative to the DL-form (racemic form): the same as those of 1-N-DL-isoserylkanamycin
mice
  toxicity relative to the DL-form: the same as those of 1-N-DL-isoserylkanamycin
